# Source: publication PMC8287944, “5-Fluorouracil blocks quorum-sensing of biofilm-embedded methicillin-resistant Staphylococcus aureus in mice” (Nucleic Acids Research, 2021)
# Key:
# [1] = system: SE 1457 wild type; experiment: AI-2 activity of SE 1457 wild type; format: cell-based, Staphylococcus epidermidis; details: 3 h, increasing 5-FU concentrations
# Procedure: To confirm that the phenotype could be restored, 1 μM synthetic (S)-4,5-dihydroxy-2,3-pentanedione (DPD) (Biosynth Carbosynth, Staad, Switzerland) was used. After 3 h under static conditions at 37°C, the supernatant was analysed for AI-2 activity with V. harveyi (MM32).
# Supplementary Figure 4 | Bioactivity of 5-FU against Staphylococcus epidermidis (SE). a) Quorum-sensing-associated AI-2 activity of SE 1457 grown for 3 h in the presence of different 5-FU concentrations (note log scale). b) Reversing effect of 1 µM DPD on the AI-2-reducing action of 5-FU (dashed line indicates AI-2 baseline of SE 1457 without 5-FU). Values represent 3 biological replicates expressed as mean ± SD (*, p < 0.05; **, p < 0.01).
# [2] = system: MRSA ATCC 43300; experiment: Murine tissue cage (foreign-body) infection model, prophylaxis; format: in vivo, Staphylococcus aureus; details: C57BL/6 mice, prophylactic treatment
# Procedure: To evaluate the prophylactic efficacy of 5-FU against MRSA infection, we used our murine model of foreign-body infection, which closely mimics human implant-associated infections. This model of foreign-body infection ([26],[27]) was established with the approval of the Kantonale Veterinaeramt Basel-Stadt, Switzerland (permit no. 1710). Experiments were conducted according to the regulations of Swiss veterinary law and performed in the animal house of the Department of Biomedicine, University Hospital Basel, Switzerland. Healthy wild-type female C57BL/6 mice at 13 weeks of age (JanvierLabs, France) kept under specific pathogen-free conditions (biosafety level 2) were anesthetized, followed by the subcutaneous implantation of sterile cylindrical Teflon tissue cages (8.5 × 1 × 30 mm; volume: 1.9 ml) with 130 regularly spaced holes (Angst + Pfister AG, Zurich, Switzerland). They were housed in a 12 hr light/dark cycle (light from 7 am to 7 pm) in a temperature-controlled room (24°C) with free access to regular mice chow and water. Mice were randomly assigned to experimental groups, which were not involved in previous procedures. The mice were randomized into groups, which were treated as follows: saline (untreated growth control; n = 7), saline with 5.2844 mg/kg DPD (n = 4), 50 mg/kg daptomycin (DAP) (Novartis, Basel, Switzerland) (n = 11), 10 mg/kg 5-FU with and without 50 mg/kg DAP (each n = 8), 40 mg/kg 5-FU with or without 50 mg/kg DAP (n = 16 and n = 13, respectively), 40 mg/kg 5-FU with 1 μM DPD (n = 6), or 40 mg/kg 5-FU with 50 mg/kg DAP and 5.2844 mg/kg DPD (n = 8). DAP was given intraperitoneally immediately before implantation, and 5-FU and DPD was given immediately after implantation directly into the lumen of the cage. Afterwards, the cages were infected with 965 CFU of MRSA 43300. At 2 days post-infection, tissue cage fluid was collected, and the planktonic bacterial load was evaluated by plating on blood agar plates. In additional, mice were sacrificed and the tissue cages were explanted under aseptic conditions. The explanted tissue cages were washed twice with phosphate-buffered saline followed by 30 s vortexing, sonication for 3 min at 130 W and another 30 s vortexing to release adherent bacteria from the biofilm. Quantification of adherent bacteria was performed by plating appropriated dilutions on blood agar plates. To determine the prevention rate, the presence of any re-growth of MRSA was examined by further incubation of the cage in tryptic soy broth (TSB) for 48 h at 37°C. MRSA re-growth represents therapy failure, and the prevention rate was defined as the percentage of cages without growth in each treatment group.
# Figure 6. Prophylactic effect of 5-FU against MRSA ATCC 43300 in a murine tissue cage infection model. Read-outs were obtained two days after infection with 965 CFU/cage and treatment with saline, saline with 1 μM AI-2, 50 mg/kg daptomycin (DAP), 10 mg/kg 5-FU with or without 50 mg/kg DAP, 40 mg/kg 5-FU with or without 50 mg/kg DAP or 40 mg/kg 5-FU with 50 mg/kg DAP and 5.2844 mg/kg DPD, as indicated below the panels. (A) Effect on planktonic MRSA 43300 two days post-infection. (B) Effect on adherent MRSA after explantation and sonication. (C) Prevention rate. Values in (A) and (B) are median ± IQR and those in (C) are % ([…]; **P < 0.001; ****P < 0.0001; ns, not significant). TEXT PRINTED IN THE PICTURE: (C) DAP: prevention rate (%): 18 | (C) DAP + 5-FU (10): prevention rate (%): 75 | (C) DAP + 5-FU (40): prevention rate (%): 94 | (C) DAP + 5-FU (40) + DPD: prevention rate (%): 12.5 DOUBTS OF THE COPYIST ABOUT THIS PICTURE: Panel C, DAP, prevention rate: 18 or 16 (small print) / Panel C, DAP + 5-FU (10), prevention rate: 75 or 76 (small print) / Panel C: which treatment belongs to each bar was read from the small +/- grid under the plot, so the column alignment is not fully certain
smiles,measurement,setting,value
O=c1[nH]cc(F)c(=O)[nH]1 [5-Fluorouracil],AI-2 activity of SE 1457,[1],reduced AI-2 activity dose-dependently
same,Effect on biofilm / adherent MRSA,[2]; explanted cages 2 days post-infection,neither 5-FU nor DAP alone was sufficient to contain the infection
same,Effect on planktonic MRSA infection,[2]; tissue cage fluid 2 days post-infection,failed to clear planktonic MRSA infections
